Assay [1] deals with T1, human orexin 1 receptor (hOx1R) (Homo sapiens, UniProt O43613).
T1 construct: expressed in transfected cells
T1 sequence (O43613 1-425): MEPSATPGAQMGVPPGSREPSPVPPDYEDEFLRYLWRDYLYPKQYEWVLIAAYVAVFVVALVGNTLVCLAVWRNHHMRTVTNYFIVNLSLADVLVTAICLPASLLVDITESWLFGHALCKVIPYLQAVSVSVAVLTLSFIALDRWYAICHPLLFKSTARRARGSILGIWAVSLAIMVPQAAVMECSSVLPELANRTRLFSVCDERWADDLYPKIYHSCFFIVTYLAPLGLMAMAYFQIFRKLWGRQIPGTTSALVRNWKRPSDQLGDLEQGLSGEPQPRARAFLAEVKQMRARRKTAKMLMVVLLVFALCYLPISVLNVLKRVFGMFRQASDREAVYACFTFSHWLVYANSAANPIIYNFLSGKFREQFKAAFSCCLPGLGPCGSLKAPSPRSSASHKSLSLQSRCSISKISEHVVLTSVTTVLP
The experiment in a line: Calcium accumulation in cells (FLIPR), antagonism of orexin A, hOx1R. The class given is cell-based. The conditions noted are these: for Kd: cells expressing human orexin 1 receptor, IC50 vs orexin A converted by Cheng and Prusoff correction; for inhibition at 10 µM: measured at a concentration of 10 μM of compound (cells marked ^a). The method, then: (§1) Cells expressing human orexin 1 or human orexin 2 receptors, were seeded at 8,000 cells/well in 384 well black-walled clear bottom, poly-D-lysine coated plates. After 24 h, the medium was removed and cells were washed once with phosphate buffered saline and serum-deprived overnight in assay buffer (130 mM NaCl, 5.4 mM KCl, 1.8 mM CaCl2, 0.8 mM MgSO4, 0.9 mM NaH2PO4, 25 mM glucose, 20 mM HEPES, pH 7.4) containing bovine serum albumin (1% w/v).
(§2) On the day of the experiment, the cells seeded in black plates were treated with assay buffer containing the Ca^2+ sensitive fluorescent dye Fluo-4-AM (2 μM), and probenecid (0.1 mM). After 1 h plates were washed twice with, and resuspended in, assay buffer containing probenecid (0.1 mM) using a multi plate washer. The plates were placed into a FLIPR II (Fluorometric Imaging Plate Reader, Molecular Devices, Sunnyvale, Calif., USA) and baseline fluorescence (fluorescence light units, FLU) was measured (5 measurements, 2 S each; laser excitation 488 nm at 0.6-1 W, CCD camera exposure 0.4 s) before addition of buffer alone (basal) or containing test compounds (either compound of formula I alone, agonist alone or agonist in the presence of various concentrations of compounds of formula I). Fluorescence measurements were then continued every 1 S for 120 S followed by every 4 S for 240 S.
(§3) The measurements were typically made in two sequences:
(§4) Compounds of formula I were tested usually in a concentration range from 10^−9 M to 10^−5 M.
(§5) In the second round, performed one hour later (to allow for equilibration), Orexin A was tested either in the absence (calibration curves, Orexin A agonist controls) or in the presence of compounds of formula I to determine antagonism.

The target in assay [2] is T2, human orexin 2 receptor (hOx2R) (Homo sapiens, UniProt O43614).
T2 construct: expressed in transfected cells
T2 sequence (O43614 1-444): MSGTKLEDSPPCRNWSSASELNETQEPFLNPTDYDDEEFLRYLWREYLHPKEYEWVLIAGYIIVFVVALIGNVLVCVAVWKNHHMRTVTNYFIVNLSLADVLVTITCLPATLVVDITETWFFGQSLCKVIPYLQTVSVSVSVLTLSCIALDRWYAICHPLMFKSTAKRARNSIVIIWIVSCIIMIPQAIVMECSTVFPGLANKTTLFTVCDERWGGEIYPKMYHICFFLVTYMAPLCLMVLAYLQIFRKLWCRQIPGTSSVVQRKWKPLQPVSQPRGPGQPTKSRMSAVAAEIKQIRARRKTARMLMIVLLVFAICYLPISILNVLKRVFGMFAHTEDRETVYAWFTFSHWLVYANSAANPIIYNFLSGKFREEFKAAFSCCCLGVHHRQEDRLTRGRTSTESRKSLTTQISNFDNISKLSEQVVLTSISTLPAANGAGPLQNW
The experiment in a line: Calcium accumulation in cells (FLIPR), antagonism of orexin A, hOx2R. It is filed as cell-based. The note with it: cells expressing human orexin 2 receptor; IC50 vs orexin A converted by Cheng and Prusoff correction. The protocol:
as §1, §2, §3, §4, §5

Assay [3] concerns the target T1, human orexin 1 receptor (hOx1R). The experiment in a line: Radioligand binding assay ([125I]orexin A competition), hOx1R. The conditions noted are these: CHO or HEK cell membranes, 1 h room temperature. The method, then:
(§6) For crude cell membrane preparations, cells (CHO, Chinese hamster ovary or HEK, human embryonic kidney) expressing human orexin 1 or human orexin 2 receptors, were washed with HEPES (10 mM, pH 7.5), scraped off the culture plates with the same buffer, and centrifuged at 4° C. for 5 min at 2500×g. The cell pellet was either stored at −80° C. or used directly. Before the experiments, cell membranes were re-suspended in binding assay buffer (10 mM HEPES, 0.5% (w/v) bovine serum albumin, pH 7.5) by homogenisation with a Polytron homogeniser at 50 Hz for 20 s. Cell membranes were also used as made available by commercial providers.
(§7) In initial saturation experiments (to calculate Bmax), cell homogenates (150 μl) were incubated with 25-300 pM of the radioligand ([^125I]orexin A, 50 μl), 8 concentrations in triplicates in the presence or absence Orexin A (1 μM, 50 μl) to define non specific binding. Bound radioactivity was measured, and data were analysed with the program XLFIT or Graphpad Prism. Protein concentration was determined according to the Bradford/BioRad Protein Assay Kit.
(§8) In competition experiments, cell homogenates (150 μl) were incubated in assay buffer (10 mM HEPES, pH 7.5, 0.5% (w/v) bovine serum albumin, 5 mM MgCl2, […], and tween 0.05%) for 1 h at room temperature with about […] of the radioligand ([^125I]orexin A, 2100 Ci/mmole, 50 μl), and with various concentrations of compounds of the invention (50 μl) in triplicates; non-specific binding was determined in the presence of Orexin A (1 μM). Reactions were terminated by vacuum filtration, 3 washes of ice cold wash buffer (Tris-HCl pH 7.4/10 mM, with NaCl 154 mM). Competition data is expressed in Table 1 as Kd [μM].

Assay [4] deals with T2, human orexin 2 receptor (hOx2R). The experiment in a line: Radioligand binding assay ([125I]orexin A competition), hOx2R. The note with it: CHO or HEK cell membranes, 1 h room temperature. The protocol: as §6, §7, §8

In the case of `CN(C(=O)c1cccc2ccccc12)[C@H](CCNC(=O)c1nc2ccccc2n1C)Cc1ccc(F)cc1` [Example 24, 1-Methyl-1H-benzoimidazole-2-carboxylic acid {(S)-4-(4-fluoro-phenyl)-3-[methyl-(naphthalene-1-carbonyl)-amino]-butyl}-amide], the Kd was found to be 124 nM in assay [1], 5 nM in assay [2], 1390 nM in assay [3] and 273 nM in assay [4].
Consider `CCCCC(=O)NCCC(Cc1ccccc1)N(C)C(=O)c1cc(C(F)(F)F)cc(C(F)(F)F)c1` (centres unmarked) [Example 39, N-(1-Benzyl-3-pentanoylamino-propyl)-N-methyl-3,5-bis-trifluoromethyl-benzamide], for which, in assay [1], the inhibition at 10 µM came to 0%. For the same molecule, the results for the Kd in assay [2], in assay [3] and in assay [4] were 419 nM, greater than 10000 nM and 610 nM, respectively.
As to `CN(C(=O)c1ccc2cc[nH]c2c1)[C@H](CCNC(=O)c1ccccn1)Cc1ccccc1` [Example 64, 1H-Indole-6-carboxylic acid {(S)-1-benzyl-3-[(pyridine-2-carbonyl)-amino]-propyl}-methyl-amide], the Kd was 1010 nM in assay [1], 1070 nM in assay [2], 540 nM in assay [3] and 6860 nM in assay [4].
The like results for `CN(C(=O)c1ccc2[nH]ccc2c1)[C@H](CCNC(=O)c1ccccn1)Cc1ccccc1` [Example 7, 1H-Indole-5-carboxylic acid {(S)-1-benzyl-3-[(pyridine-2-carbonyl)-amino]-propyl}-methyl-amide] were, in that order, 16 nM, 40 nM, 7 nM and 41 nM.
In the case of `COc1cc(OC)cc(C(=O)N(C)[C@H](CCNC(=O)c2ccccn2)Cc2ccccc2)c1` [Example 41, Pyridine-2-carboxylic acid {(S)-3-[(3,5-dimethoxy-benzoyl)-methyl-amino]-4-phenyl-butyl}-amide], the Kd in assay [1] worked out at 1600 nM; in assay [2], 196 nM; in assay [3], 1730 nM; in assay [4] it was 484 nM.
For `CN(C(=O)c1ccc2c(c1)OCO2)[C@H](CCNC(=O)c1ccccn1)Cc1ccc(Cl)cc1` [Example 25, Pyridine-2-carboxylic acid [(S)-3-[(benzo[1,3]dioxole-5-carbonyl)-methyl-amino]-4-(4-chloro-phenyl)-butyl]-amide] the same measures were 1000 nM, 36 nM, 2220 nM and 308 nM.
Take `C[C@H](CNC(=O)c1ccccn1)[C@H](Cc1ccccc1)N(C)C(=O)c1ccccc1` [Example 112, Pyridine-2-carboxylic acid [(2R,3S)-3-(benzoyl-methyl-amino)-2-methyl-4-phenyl-butyl]-amide]: the Kd amounted to 415 nM in assay [1], 498 nM in assay [2], 477 nM in assay [3] and 1160 nM in assay [4].
Take `CN(C(=O)c1ccc2c(c1)CCN2)[C@H](CCNC(=O)c1ccccn1)Cc1ccccc1` [Example 23, 2,3-Dihydro-1H-indole-5-carboxylic acid {(S)-1-benzyl-3-[(pyridine-2-carbonyl)-amino]-propyl}-methyl-amide]: the Kd in assay [1] came to 152 nM; in assay [2], 419 nM; in assay [3], 52 nM; in assay [4], 265 nM.
For `Cc1nc2sccn2c1C(=O)NCC[C@H](Cc1ccccc1)N(C)C(=O)c1ccccc1` [Example 33, 6-Methyl-imidazo[2,1-b]thiazole-5-carboxylic acid [(S)-3-(benzoyl-methyl-amino)-4-phenyl-butyl]-amide] the same measures were 1960 nM, 76 nM, 5730 nM and 450 nM.
For the molecule `CN(C(=O)c1ccc2c(ccn2C)c1)[C@H](CCNC(=O)c1ccccn1)Cc1ccccc1` [Example 84, 1-Methyl-1H-indole-5-carboxylic acid {(S)-1-benzyl-3-[(pyridine-2-carbonyl)-amino]-propyl}-methyl-amide], the Kd in assay [1] was 50 nM; in assay [2], 809 nM; in assay [3] it was 30 nM; in assay [4], 1330 nM.
In the case of `CN(C(=O)c1ccc2c(c1)OCO2)[C@H](CCNC(=O)c1ccccn1)Cc1ccc(F)cc1` [Example 51, Pyridine-2-carboxylic acid [(S)-3-[(benzo[1,3]dioxole-5-carbonyl)-methyl-amino]-4-(4-fluoro-phenyl)-butyl]-amide], in assay [1], the inhibition at 10 µM stood at 16%. Further, the figures for the dissociation constant Kd in assay [2], in assay [3] and in assay [4] were 794 nM, 3540 nM and 1150 nM, respectively.
As for `CN(C(=O)c1cccc2c1OCO2)[C@H](CCNC(=O)c1nc2ccccc2n1C)Cc1ccccc1` [Example 19, 1-Methyl-1H-benzoimidazole-2-carboxylic acid {(8)-3-[(benzo[1,3]dioxole-4-carbonyl)-methyl-amino]-4-phenyl-butyl}-amide], the Kd in assay [1] was 1120 nM; in assay [2], 114 nM; in assay [3] it was 793 nM; in assay [4], 131 nM.
For the molecule `CN(C(=O)c1ccccc1)[C@H](CCNC(=O)c1cccc2cccnc12)Cc1ccccc1` [Example 49, Quinoline-8-carboxylic acid [(S)-3-(benzoyl-methyl-amino)-4-phenyl-butyl]-amide], the inhibition at 10 µM in assay [1] worked out at 9%. Moreover, the Kd amounted to 414 nM in assay [2], 2450 nM in assay [3] and 1070 nM in assay [4].
As for `CN(C(=O)c1ccc2c(c1)OCO2)[C@H](CCNC(=O)c1ccc2c(c1)OCO2)Cc1ccccc1` [Example 62, Benzo[1,3]dioxole-5-carboxylic acid {(S)-3-[(benzo[1,3]dioxole-5-carbonyl)-amino]-1-benzyl-propyl}-methyl-amide], the Kd in assay [1] was 872 nM; in assay [2], 22 nM; in assay [3], 222 nM; in assay [4] it was 47 nM.

For orientation: Kd means the concentration at which binding is half-saturated. As usually defined, the inhibition is the percentage by which the read-out fell short of the control.
